For orientation: IC50 means the concentration that inhibits the measured activity by half.

Chain of truncated form of human NaV 1.8 with full channel activity (Q9Y5Y9 126-1722 limits assumed): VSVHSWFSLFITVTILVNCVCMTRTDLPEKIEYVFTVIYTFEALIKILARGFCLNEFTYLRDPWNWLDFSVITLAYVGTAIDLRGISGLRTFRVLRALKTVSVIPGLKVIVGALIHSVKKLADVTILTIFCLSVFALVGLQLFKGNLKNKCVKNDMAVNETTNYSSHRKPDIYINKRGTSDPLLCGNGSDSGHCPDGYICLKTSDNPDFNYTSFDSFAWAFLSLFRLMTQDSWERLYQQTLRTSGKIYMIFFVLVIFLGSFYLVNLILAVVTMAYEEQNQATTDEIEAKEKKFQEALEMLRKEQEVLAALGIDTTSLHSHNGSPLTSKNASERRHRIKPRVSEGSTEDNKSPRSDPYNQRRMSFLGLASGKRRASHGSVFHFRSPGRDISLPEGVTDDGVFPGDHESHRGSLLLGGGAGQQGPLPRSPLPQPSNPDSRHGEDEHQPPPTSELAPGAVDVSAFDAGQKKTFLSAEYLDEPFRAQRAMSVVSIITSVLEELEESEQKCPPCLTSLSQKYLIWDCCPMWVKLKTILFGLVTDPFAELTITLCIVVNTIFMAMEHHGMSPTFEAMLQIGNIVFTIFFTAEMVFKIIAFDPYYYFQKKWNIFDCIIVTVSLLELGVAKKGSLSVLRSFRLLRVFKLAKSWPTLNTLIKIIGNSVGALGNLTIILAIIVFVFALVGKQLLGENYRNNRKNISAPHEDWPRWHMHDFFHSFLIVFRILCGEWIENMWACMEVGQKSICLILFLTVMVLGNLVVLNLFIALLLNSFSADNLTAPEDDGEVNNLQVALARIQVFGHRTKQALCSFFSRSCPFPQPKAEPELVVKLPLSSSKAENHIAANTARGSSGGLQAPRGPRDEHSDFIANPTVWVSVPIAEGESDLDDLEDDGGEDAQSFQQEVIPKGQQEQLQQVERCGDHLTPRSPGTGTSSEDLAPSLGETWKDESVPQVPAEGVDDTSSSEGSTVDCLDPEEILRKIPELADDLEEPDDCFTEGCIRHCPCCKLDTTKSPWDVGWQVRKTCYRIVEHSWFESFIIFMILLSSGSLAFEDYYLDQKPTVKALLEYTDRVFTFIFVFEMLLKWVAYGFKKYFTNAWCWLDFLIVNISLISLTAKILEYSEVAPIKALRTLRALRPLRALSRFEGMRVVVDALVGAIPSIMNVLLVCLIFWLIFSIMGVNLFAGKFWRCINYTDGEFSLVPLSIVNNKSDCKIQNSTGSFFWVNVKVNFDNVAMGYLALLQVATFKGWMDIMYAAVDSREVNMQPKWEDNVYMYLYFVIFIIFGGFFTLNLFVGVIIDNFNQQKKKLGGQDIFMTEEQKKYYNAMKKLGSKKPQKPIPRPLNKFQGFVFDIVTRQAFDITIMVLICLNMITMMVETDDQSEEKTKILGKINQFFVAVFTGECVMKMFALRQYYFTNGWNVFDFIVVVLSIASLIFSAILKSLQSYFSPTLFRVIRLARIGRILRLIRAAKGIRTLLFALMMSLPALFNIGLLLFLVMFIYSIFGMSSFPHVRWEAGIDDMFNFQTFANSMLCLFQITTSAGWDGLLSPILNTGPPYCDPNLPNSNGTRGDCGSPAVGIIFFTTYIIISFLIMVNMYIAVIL

For the first experiment, the target named is truncated form of human NaV 1.8 with full channel activity (Homo sapiens, UniProt Q9Y5Y9). Kind of experiment: E-VIPR Assay Method A for detecting and measuring Nav inhibition (HEK cells, membrane potential FRET dyes, electrical stimulation). The class given is cell-based. To be noted: HEK cells expressing human NaV 1.8, HS (human serum) in compound loading buffer, 11 point dose response, top dose 3 μM, Table 20, read-out: Nav 1.8 MedChem Optical Assay EVIPR Assay Method A HS IC50. The essentials:
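HEK cells expressing truncated human NaV1.8, loaded with CC2-DMPE/DiSBAC6(3) FRET dyes, incubated 30 min at room temp with compound (0.625% DMSO), then electrically stimulated (1.25 A biphasic, 10 Hz, 10 s). Inhibition from 460/580 nm ratio Rf/Ri, normalised to positive and DMSO controls.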
Consider `COc1cc(OC(F)(F)F)ccc1Oc1cc(C2CC2)cc(F)c1C(=O)Nc1ccnc(C(N)=O)c1` [Compound 22, 4-[[4-cyclopropyl-2-fluoro-6-[2-methoxy-4-(trifluoromethoxy)phenoxy]benzoyl]amino]pyridine-2-carboxamide], for which the IC50 turned out to be 11 nM. Same read-out and setting: to `COc1c(Oc2ccc(C(F)(F)F)c(F)c2C(=O)Nc2ccnc(C(N)=O)c2)ccc(OC(F)(F)F)c1F` [Compound 26, 4-[[2-fluoro-6-[3-fluoro-2-methoxy-4-(trifluoromethoxy)phenoxy]-3-(trifluoromethyl)benzoyl]amino]pyridine-2-carboxamide] belongs 2 nM. Turning to `COc1cc(OC(F)(F)F)ccc1Oc1cnc(C(F)(F)F)c(F)c1C(=O)Nc1ccnc(C(N)=O)c1` [Compound 12, N-(2-Carbamoyl-4-pyridyl)-3-fluoro-5-[2-methoxy-4-(trifluoromethoxy)phenoxy]-2-(trifluoromethyl)pyridine-4-carboxamide], the half-inhibitory concentration (IC50) was determined as 4 nM. As to `COc1cc(OC(F)(F)F)ccc1Oc1cc(C(F)(F)F)c(F)cc1C(=O)Nc1ccc(F)c(C(N)=O)c1` [Compound 23, N-(3-carbamoyl-4-fluoro-phenyl)-5-fluoro-2-[2-methoxy-4-(trifluoromethoxy)phenoxy]-4-(trifluoromethyl)benzamide], the IC50 is 14 nM. For the molecule `NC(=O)c1cc(NC(=O)c2c(Oc3ccc(OC(F)(F)F)cc3)ccc(C(F)(F)F)c2F)ccc1F` [Compound 15, N-(3-carbamoyl-4-fluoro-phenyl)-2-fluoro-6-[4-(trifluoromethoxy)phenoxy]-3-(trifluoromethyl)benzamide], the IC50 was 7 nM.

The experiment is the same for the next values; noted with them: HEK cells expressing human NaV 1.8, HS (human serum) in compound loading buffer, 11 point dose response, top dose 3 μM, Table 20A, read-out: Nav 1.8 MedChem Optical Assay EVIPR Assay Method A HS IC50.
For `[2H]C([2H])([2H])Oc1cc(OC(F)(F)F)ccc1Oc1ccc(OC(F)F)c(F)c1C(=O)Nc1ccc(C(N)=O)nc1` [Compound 198, 5-[[3-(Difluoromethoxy)-2-fluoro-6-[2-(trideuteriomethoxy)-4-(trifluoromethoxy)phenoxy]benzoyl]amino]pyridine-2-carboxamide], the IC50 worked out at 150 nM.

On to `COc1cc(OC(F)(F)F)ccc1Oc1cc(C(F)(F)F)cc(F)c1C(=O)Nc1cc(C(N)=O)c(F)cc1C` [Compound 139, 2-Fluoro-5-[[2-fluoro-6-[2-methoxy-4-(trifluoromethoxy)phenoxy]-4-(trifluoromethyl)benzoyl]amino]-4-methyl-benzamide], for which the IC50 stood at 85 nM. On to `[2H]C([2H])([2H])Oc1c(Oc2ccc(C(F)F)c(F)c2C(=O)Nc2ccnc(C(N)=O)c2)ccc(OC(F)(F)F)c1F` [Compound 235, 4-[[3-(Difluoromethyl)-2-fluoro-6-[3-fluoro-2-(trideuteriomethoxy)-4-(trifluoromethoxy)phenoxy]benzoyl]amino]pyridine-2-carboxamide], for which the IC50 was found to be 5 nM. As for `COc1cc(OC(F)(F)F)ccc1Oc1ccc(C(F)(F)F)c(F)c1C(=O)Nc1cncc(C(N)=O)c1` [Compound 52, 5-[[2-fluoro-6-[2-methoxy-4-(trifluoromethoxy)phenoxy]-3-(trifluoromethyl)benzoyl]amino]pyridine-3-carboxamide], the IC50 came out at 14 nM. On to `NC(=O)c1cccc(NC(=O)c2c(Oc3ccc(F)cc3)ccc(C(F)(F)F)c2F)c1` [Compound 49, N-(3-carbamoylphenyl)-2-fluoro-6-(4-fluorophenoxy)-3-(trifluoromethyl)benzamide], for which the IC50 came to 130 nM.

On to `COc1cc(OC(F)(F)F)ccc1Oc1cc2c(cc1C(=O)Nc1ccc(F)c(C(N)=O)c1)OC(F)(F)O2` [Compound 122, N-(3-Carbamoyl-4-fluoro-phenyl)-2,2-difluoro-6-[2-methoxy-4-(trifluoromethoxy)phenoxy]-1,3-benzodioxole-5-carboxamide], for which the IC50 turned out to be 56 nM. With `[2H]C([2H])([2H])Oc1cc(OC(F)(F)F)ccc1Oc1cc(C(F)(F)F)cc(C(F)(F)F)c1C(=O)Nc1ccc(C(N)=O)nc1` [Compound 176, 5-[[2-[2-(Trideuteriomethoxy)-4-(trifluoromethoxy)phenoxy]-4,6-bis(trifluoromethyl)benzoyl]amino]pyridine-2-carboxamide], the IC50 was determined as 190 nM. The same measure, in the same setting: to `NC(=O)c1cc(NC(=O)c2c(Oc3ccc(OC(F)(F)F)cc3)ccc(C(F)(F)F)c2F)ccc1Cl` [Compound 134, N-(3-carbamoyl-4-chloro-phenyl)-2-fluoro-6-[4-(trifluoromethoxy)phenoxy]-3-(trifluoromethyl)benzamide] belongs 68 nM; to `COc1cc(OC(F)(F)F)ccc1Oc1cc(Cl)cc(OC)c1C(=O)Nc1ccc(C(N)=O)nc1` [Compound 204, 5-[[4-Chloro-2-methoxy-6-[2-methoxy-4-(trifluoromethoxy)phenoxy]benzoyl]amino]pyridine-2-carboxamide], 600 nM; to `COc1cc(OC(F)(F)F)ccc1Oc1cc(C(F)(F)F)c(F)cc1C(=O)Nc1ccnc(C(N)=O)c1` [Compound 75, 4-[[5-Fluoro-2-[2-methoxy-4-(trifluoromethoxy)phenoxy]-4-(trifluoromethyl)benzoyl]amino]pyridine-2-carboxamide], 26 nM. On to `COc1cc(OC(F)(F)F)ccc1Oc1cc(Cl)cc(F)c1C(=O)Nc1cc(C(N)=O)ncc1C` [Compound 130, 4-[[4-Chloro-2-fluoro-6-[2-methoxy-4-(trifluoromethoxy)phenoxy]benzoyl]amino]-5-methyl-pyridine-2-carboxamide], for which the half-inhibitory concentration (IC50) stood at 27 nM. Consider `COc1cc(F)ccc1-c1cc(C(C)(C)C)ncc1C(=O)Nc1ccc(F)c(C(N)=O)c1` [Compound 199, 6-tert-butyl-N-(3-carbamoyl-4-fluoro-phenyl)-4-(4-fluoro-2-methoxy-phenyl)pyridine-3-carboxamide], for which the IC50 was found to be 170 nM.

`[2H]C([2H])([2H])Oc1cc(OC(F)(F)F)ccc1Oc1ccc(OC(F)F)c(F)c1C(=O)Nc1ccnc(C(N)=O)c1` [Compound 155, 4-[[3-(Difluoromethoxy)-2-fluoro-6-[2-(trideuteriomethoxy)-4-(trifluoromethoxy)phenoxy]benzoyl]amino]pyridine-2-carboxamide]: the IC50 turned out to be 17 nM. Consider `NC(=O)c1cc(NC(=O)c2cc(C(F)(F)C(F)(F)F)ccc2Oc2ccc(OC(F)(F)F)cc2)ccn1` [Compound 80, 4-[[5-(1,1,2,2,2-pentafluoroethyl)-2-[4-(trifluoromethoxy)phenoxy]benzoyl]amino]pyridine-2-carboxamide], for which the IC50 amounted to 127 nM. On the same count and under the same terms, to `NC(=O)c1cc(NC(=O)c2c(Oc3ccc(OC(F)(F)F)cc3)cc(OCc3ccccc3)c(C(F)(F)F)c2F)ccc1F` [Compound 215, 4-Benzyloxy-N-(3-carbamoyl-4-fluoro-phenyl)-2-fluoro-6-[4-(trifluoromethoxy)phenoxy]-3-(trifluoromethyl)benzamide] belongs 18 nM; to `NC(=O)c1cc(NC(=O)c2c(Oc3ccc(OC(F)(F)F)cc3O)ccc(C(F)(F)F)c2F)ccn1` [Compound 214, 4-[[2-Fluoro-6-[2-hydroxy-4-(trifluoromethoxy)phenoxy]-3-(trifluoromethyl)benzoyl]amino]pyridine-2-carboxamide], 660 nM. Same read-out and setting: as for `[2H]C([2H])([2H])Oc1c(Oc2ccc(C(F)(F)F)c(F)c2C(=O)Nc2cc(C(N)=O)ncc2C)ccc(OC(F)(F)F)c1F` [Compound 227, 4-[[2-Fluoro-6-[3-fluoro-2-(trideuteriomethoxy)-4-(trifluoromethoxy)phenoxy]-3-(trifluoromethyl)benzoyl]amino]-5-methyl-pyridine-2-carboxamide], the figure is 2 nM. The same measure, in the same setting: to `COc1cc(OC(F)(F)F)ccc1Oc1ccc(F)c(Cl)c1C(=O)Nc1ccnc(C(N)=O)c1` [Compound 171, 4-[[2-Chloro-3-fluoro-6-[2-methoxy-4-(trifluoromethoxy)phenoxy]benzoyl]amino]pyridine-2-carboxamide] belongs 35 nM; to `COc1cc(OC(F)(F)F)ccc1Oc1ccc(C(F)(F)F)c(F)c1C(=O)Nc1cccc(C(N)=O)c1` [Compound 44, N-(3-carbamoylphenyl)-2-fluoro-6-[2-methoxy-4-(trifluoromethoxy)phenoxy]-3-(trifluoromethyl)benzamide], 5 nM; to `[2H]C([2H])([2H])Oc1c(Oc2cc(C(F)(F)F)cc(F)c2C(=O)Nc2ccnc(C(N)=O)c2)ccc(OC(F)(F)F)c1F` [Compound 223, 4-[[2-Fluoro-6-[3-fluoro-2-(trideuteriomethoxy)-4-(trifluoromethoxy)phenoxy]-4-(trifluoromethyl)benzoyl]amino]pyridine-2-carboxamide], 8 nM. Consider `NC(=O)c1cc(F)cc(NC(=O)c2c(Oc3ccc(OC(F)(F)F)cc3)ccc(C(F)(F)F)c2F)c1` [Compound 101, N-(3-carbamoyl-5-fluoro-phenyl)-2-fluoro-6-[4-(trifluoromethoxy)phenoxy]-3-(trifluoromethyl)benzamide], for which the IC50 is 135 nM. For the molecule `[2H]C([2H])([2H])c1c(Oc2ccc(C(F)(F)F)c(F)c2C(=O)Nc2ccnc(C(N)=O)c2)ccc(OC(F)(F)F)c1F` [Compound 232, 4-[[2-Fluoro-6-[3-fluoro-2-(trideuteriomethyl)-4-(trifluoromethoxy)phenoxy]-3-(trifluoromethyl)benzoyl]amino]pyridine-2-carboxamide], the IC50 stood at 17 nM. The same measure, in the same setting: as for `COc1cc(OC(F)(F)F)ccc1Oc1cc(C2CC2)ncc1C(=O)Nc1ccc(F)c(C(N)=O)c1` [Compound 43, N-(3-Carbamoyl-4-fluoro-phenyl)-6-cyclopropyl-4-[2-methoxy-4-(trifluoromethoxy)phenoxy]pyridine-3-carboxamide], the figure is 40 nM; as for `[2H]C([2H])([2H])Oc1cc(OC(F)(F)F)ccc1Oc1cc(OC(F)(F)F)cc(F)c1C(=O)Nc1ccnc(C(N)=O)c1` [Compound 172, 4-[[2-Fluoro-6-[2-(trideuteriomethoxy)-4-(trifluoromethoxy)phenoxy]-4-(trifluoromethoxy)benzoyl]amino]pyridine-2-carboxamide], 12 nM.

Source of the values: patent publication US12281057B2 (VERTEX PHARMACEUTICALS INCORPORATED, priority 2017, dated 2025).
